From article PMC5452050 (ACS Omega, 2017)

Target: T1, recombinant human FLT3 (571–993) (Homo sapiens, UniProt P36888)
T1 sequence (P36888 571-993): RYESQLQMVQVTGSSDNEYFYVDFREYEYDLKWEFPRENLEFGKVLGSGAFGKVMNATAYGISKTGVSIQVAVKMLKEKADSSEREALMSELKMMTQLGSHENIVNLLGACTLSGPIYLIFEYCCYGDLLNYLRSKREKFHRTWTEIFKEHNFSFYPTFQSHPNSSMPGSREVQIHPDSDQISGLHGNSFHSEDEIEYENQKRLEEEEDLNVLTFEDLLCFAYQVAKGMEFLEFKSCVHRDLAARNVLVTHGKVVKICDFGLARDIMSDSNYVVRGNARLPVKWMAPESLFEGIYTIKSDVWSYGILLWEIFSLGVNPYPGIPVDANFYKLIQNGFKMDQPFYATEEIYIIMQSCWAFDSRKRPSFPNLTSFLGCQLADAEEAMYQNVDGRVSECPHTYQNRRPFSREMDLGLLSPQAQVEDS
Experiment: biochemical
Assay type: biochemical

- IC50 (FLT3 IC50, 100 μM ATP): < 6 nM
- IC50 (FLT3 IC50, 2.5 mM ATP): 116 nM
Structure (SMILES): c1cncc(-c2cccc(Nc3nccc(NC4CCCCC4)n3)c2)c1 [Compound 1, N^4-Cyclohexyl-N^2-(3-(pyridin-3-yl)phenyl)pyrimidine-2,4-diamine]
